According to US8962674B2 (Tokyo Institute of Technology, priority 2006, dated 2015):

Row | Structure (SMILES) | melting point [°C]
1 | COc1ccc(/C=C/C(=O)CC(=O)/C=C/c2cccc(OC)c2OC)cc1O [CU071, (1E,6E)-1-(2,3-dimethoxyphenyl)-7-(3-hydroxy-4-methoxyphenyl)hepta-1,6-diene-3,5-dione] | 144 to 148
2 | COc1cc(/C=C/C(=O)CC(=O)/C=C/c2ccc(O)cc2)cc(OC)c1OC [CU204, (1E,6E)-1-(4-hydroxyphenyl)-7-(3,4,5-trimethoxyphenyl)hepta-1,6-diene-3,5-dione] | 101 to 105
3 | CCN(CC)c1ccc(/C=C/C(=O)CC(=O)/C=C/c2ccc(O)cc2)c(OCc2ccc(C(C)(C)C)cc2)c1 [CU452, (1E,6E)-1-[2-(4-tert-butylbenzyloxy)-4-diethylaminophenyl]-7-(4-hydroxyphenyl)hepta-1,6-diene-3,5-dione] | 187 to 190
4 | COC(=O)c1ccc(/C=C/C(=O)CC(=O)/C=C/c2ccc(O)c(OC)c2)cc1 [CU316, (1E,6E)-1-(4-hydroxy-3-methoxyphenyl)-7-[4-(methoxycarbonyl)phenyl]hepta-1,6-diene-3,5-dione] | 149 to 152
5 | N[C@H](Cc1ccccc1)C(=O)Nc1ccc(/C=C/C(=O)CC(=O)/C=C/c2ccc(O)cc2)cc1 [CU423, (1E,6E)-1-[4-((R)-2-amino-3-phenylpropionylamino)phenyl]-7-(4-hydroxyphenyl)hepta-1,6-diene-3,5-dione] | 161 to 167
6 | COc1ccc(/C=C/C(=O)CC(=O)/C=C/c2ccco2)cc1O [CU211, (1E,6E)-1-(furan-2-yl)-7-(3-hydroxy-4-methoxyphenyl)hepta-1,6-diene-3,5-dione] | 120 to 123
7 | O=C(/C=C/c1ccc(O)cc1)CC(=O)/C=C/c1cc(C(F)(F)F)ccc1F [CU473, (1E,6E)-1-(2-fluoro-5-trifluoromethylphenyl)-7-(4-hydroxyphenyl)hepta-1,6-diene-3,5-dione] | 168 to 174
8 | COc1ccc2cc(/C=C/C(=O)CC(=O)/C=C/c3ccc(O)cc3)ccc2c1 [CU166, (1E,6E)-1-(4-hydroxyphenyl)-7-(6-methoxynaphthalen-2-yl)hepta-1,6-diene-3,5-dione] | 217 to 220
9 | COc1ccc(/C=C/C(=O)CC(=O)/C=C/c2ccc(O)c(OC)c2)c(OC)c1 [CU073, (1E,6E)-1-(2,4-dimethoxyphenyl)-7-(4-hydroxy-3-methoxyphenyl)hepta-1,6-diene-3,5-dione] | 108 to 113
10 | O=C(/C=C/c1ccc(O)cc1)CC(=O)/C=C/c1ccc(-c2ccccn2)cc1 [CU328, (1E,6E)-1-(4-hydroxyphenyl)-7-[4-(pyridin-2-yl)phenyl]hepta-1,6-diene-3,5-dione] | 229 to 232
11 | COc1cc(/C=C/C(=O)CC(=O)/C=C/c2cc(OC)c(OC)c(OC)c2)ccc1O [CU006, (1E,6E)-1-(4-hydroxy-3-methoxyphenyl)-7-(3,4,5-trimethoxyphenyl)hepta-1,6-diene-3,5-dione] | 80 to 83
12 | COc1ccc(/C=C/C(=O)CC(=O)/C=C/c2ccc3c(c2)OCCO3)cc1O [CU210, (1E,6E)-1-(2,3-dihydrobenzo[1,4]dioxin-6-yl)-7-(3-hydroxy-4-methoxyphenyl)hepta-1,6-diene-3,5-dione] | 163 to 165
13 | COc1ccc(/C=C/C(=O)CC(=O)/C=C/c2ccc([N+](=O)[O-])c(OC)c2)cc1O [CU049, (1E,6E)-1-(3-hydroxy-4-methoxyphenyl)-7-(3-methoxy-4-nitrophenyl)hepta-1,6-diene-3,5-dione] | 196 to 199
14 | COc1ccc(/C=C/C(=O)CC(=O)/C=C/c2cccc(O)c2O)cc1O [CU265, (1E,6E)-1-(2,3-dihydroxyphenyl)-7-(3-hydroxy-4-methoxyphenyl)hepta-1,6-diene-3,5-dione] | 170 to 172
15 | COc1cc(Br)c(/C=C/C(=O)CC(=O)/C=C/c2ccc(O)cc2)cc1O [CU543, (1E,6E)-1-(2-bromo-5-hydroxy-4-methoxyphenyl)-7-(4-hydroxyphenyl)hepta-1,6-diene-3,5-dione] | 224 to 229
16 | CN(C)c1ccc(/C=C/C(=O)CC(=O)/C=C/c2ccc(O)cc2)c2ccccc12 [CU119, (1E,6E)-1-(4-dimethylaminonaphthalen-1-yl)-7-(4-hydroxyphenyl)hepta-1,6-diene-3,5-dione] | 82 to 86
17 | CCN(CC)c1ccc(/C=C/C(=O)CC(=O)/C=C/c2ccc(N(CC)CC)cc2OC(C)C)c(OC(C)C)c1 [CU433, (1E,6E)-1,7-bis(4-diethylamino-2-isopropyloxyphenyl)hepta-1,6-diene-3,5-dione] | 63 to 66
18 | Cc1ccc(Oc2ccc(/C=C/C(=O)CC(=O)/C=C/c3ccc(O)cc3)cn2)cc1 [CU333, (1E,6E)-1-(4-hydroxyphenyl)-7-[6-(4-methylphenoxy)pyridin-3-yl]hepta-1,6-diene-3,5-dione] | 167 to 172
19 | O=C(/C=C/c1ccc(O)cc1)CC(=O)/C=C/c1ccccc1CO [CU424, (1E,6E)-1-(2-hydroxymethylphenyl)-7-(4-hydroxyphenyl)hepta-1,6-diene-3,5-dione] | 173 to 180
20 | CC(C)(C)OC(=O)N1CCN(c2ccccc2/C=C/C(=O)CC(=O)/C=C/c2ccc(O)cc2)CC1 [CU499, (1E,6E)-1-{2-[4-(tert-butoxycarbonyl)piperazin-1-yl]phenyl}-7-(4-hydroxyphenyl)hepta-1,6-diene-3,5-dione] | 115 to 121

Row | Structure (SMILES) | melting point [°C]
21 | COc1cc(/C=C/C(=O)CC(=O)/C=C/c2ccc(O)cc2)cc(OC)c1O [CU134, (1E,6E)-1-(4-hydroxy-3,5-dimethoxyphenyl)-7-(4-hydroxyphenyl)hepta-1,6-diene-3,5-dione] | 228 to 233
22 | O=C(/C=C/c1ccc(O)cc1)CC(=O)/C=C/c1ccccc1C(F)(F)F [CU467, (1E,6E)-1-(4-hydroxyphenyl)-7-(2-trifluoromethylphenyl)hepta-1,6-diene-3,5-dione] | 181 to 185
23 | O=C(/C=C/c1ccc(O)cc1)CC(=O)/C=C/c1ccccc1N1CCOCC1 [CU498, (1E,6E)-1-(4-hydroxyphenyl)-7-(2-morpholinophenyl)hepta-1,6-diene-3,5-dione] | 188 to 192
24 | COc1ccc(/C=C/C(=O)CC(=O)/C=C/c2cccc3cccnc23)cc1O [CU454, (1E,6E)-1-(3-hydroxy-4-methoxyphenyl)-7-(quinolin-8-yl)hepta-1,6-diene-3,5-dione] | 80 to 85
25 | CCN(CC)c1ccc(/C=C/C(=O)CC(=O)/C=C/c2ccc(OC)c(O)c2)c(O)c1 [CU278, (1E,6E)-1-(4-diethylamino-2-hydroxyphenyl)-7-(3-hydroxy-4-methoxyphenyl)hepta-1,6-diene-3,5-dione] | 101 to 108
26 | COc1ccc(/C=C/C(=O)CC(=O)/C=C/c2ccc(O)cc2)cc1O [CU027, (1E,6E)-1-(3-hydroxy-4-methoxyphenyl)-7-(4-hydroxyphenyl)hepta-1,6-diene-3,5-dione] | 207 to 210
27 | COc1ccc(/C=C/C(=O)CC(=O)/C=C/c2ccc3ccccc3c2)cc1O [CU165, (1E,6E)-1-(3-hydroxy-4-methoxyphenyl)-7-(naphthalen-2-yl)hepta-1,6-diene-3,5-dione] | 193 to 194
28 | CCN(CC)c1ccc(/C=C/C(=O)CC(=O)/C=C/c2ccc(N(CC)CC)cc2OC(=O)c2ccccc2)c(OC(=O)c2ccccc2)c1 [CU427, (1E,6E)-1,7-bis(2-benzoyloxy-4-diethylaminophenyl)hepta-1,6-diene-3,5-dione] | 192 to 196
29 | COc1cc(/C=C/C(=O)CC(=O)/C=C/c2cccc3cccnc23)ccc1O [CU453, (1E,6E)-1-(4-hydroxy-3-methoxyphenyl)-7-(quinolin-8-yl)hepta-1,6-diene-3,5-dione] | 83 to 87
30 | COCOc1cccc(O)c1/C=C/C(=O)CC(=O)/C=C/c1ccc(OC)c(O)c1 [CU313, (1E,6E)-1-[2-hydroxy-6-(methoxymethoxy)phenyl]-7-(3-hydroxy-4-methoxyphenyl)hepta-1,6-diene-3,5-dione] | 89 to 93
31 | O=C(/C=C/c1ccc(O)cc1)CC(=O)/C=C/c1cc(OCc2ccccc2)ccc1-c1ccccc1 [CU527, (1E,6E)-1-(4-benzyloxybiphenyl-2-yl)-7-(4-hydroxyphenyl)hepta-1,6-diene-3,5-dione] | 172 to 178
32 | COc1cc(=O)oc2ccc(/C=C/C(=O)CC(=O)/C=C/c3ccc(O)cc3)cc12 [CU415, (1E,6E)-1-(4-hydroxyphenyl)-7-(4-methoxycoumarin-6-yl)hepta-1,6-diene-3,5-dione] | 250 to 254
33 | COc1ccc(/C=C/C(=O)CC(=O)/C=C/c2ccc(F)c(OC)c2)cc1O [CU139, (1E,6E)-1-(4-fluoro-3-methoxyphenyl)-7-(3-hydroxy-4-methoxyphenyl)hepta-1,6-diene-3,5-dione] | 145 to 147
34 | COc1cc(/C=C/C(=O)CC(=O)/C=C/c2ccc(N(C)C)cc2Cl)ccc1O [CU196, (1E,6E)-1-(2-chloro-4-dimethylaminophenyl)-7-(4-hydroxy-3-methoxyphenyl)hepta-1,6-diene-3,5-dione] | 113 to 120
35 | CCN(CC)c1ccc(/C=C/C(=O)CC(=O)/C=C/c2ccc(OC)c(O)c2)c(OC(C)C)c1 [CU440, (1E,6E)-1-(4-diethylamino-2-isopropyloxyphenyl)-7-(3-hydroxy-4-methoxyphenyl)hepta-1,6-diene-3,5-dione] | 117 to 120
36 | COCOc1cccc(O)c1/C=C/C(=O)CC(=O)/C=C/c1ccc(O)c(OC)c1 [CU259, (1E,6E)-1-[2-hydroxy-6-(methoxymethoxy)phenyl]-7-(4-hydroxy-3-methoxyphenyl)hepta-1,6-diene-3,5-dione] | 76 to 81
37 | COc1ccccc1/C=C/C(=O)CC(=O)/C=C/c1ccc(O)cc1 [CU066, (1E,6E)-1-(4-hydroxyphenyl)-7-(2-methoxyphenyl)hepta-1,6-diene-3,5-dione] | 171 to 178
38 | COc1cc(/C=C/C(=O)CC(=O)/C=C/c2ncc[nH]2)ccc1O [CU152, (1E,6E)-1-(4-hydroxy-3-methoxyphenyl)-7-(1H-imidazol-2-yl)hepta-1,6-diene-3,5-dione] | 235 to 240
39 | COc1ccc(/C=C/C(=O)CC(=O)/C=C/c2ccc(OC)c3ccccc23)cc1O [CU163, (1E,6E)-1-(3-hydroxy-4-methoxyphenyl)-7-(4-methoxynaphthalen-1-yl)hepta-1,6-diene-3,5-dione] | 170 to 175
